Laboratory results reported in publication PMC9926475 (ACS chemical neuroscience, 2022).
Like-named read-outs stand apart in the source and are kept apart here.

What was measured:
[1] = target: N-methyl-D-aspartate receptor (NMDAR); details: cited from earlier work
male mice = assay: Forced swim test immobility time 24 h after i.p. treatment; assay type: in vivo, mouse; details: for Minimal effective dose to reduce immobility time in the forced swim test: 24 h after injection; for Shape of dose response curve for forced swim test immobility: tested range up to 100 mg/kg
[2] = Pharmacokinetic studies in plasma and brain of mice after i.p. injection; assay type: in vivo, mouse; details: for Cmax (mean ± SEM) Brain: normalized to free base dose; for Sex-dependent difference: Brain Total exposure (AUC) / Sex-dependent difference: Plasma Total exposure (AUC): standard t-test, F female, M male, NS not statistically different; for Brain level at 4 h post-treatment: LLOQ 5.0 ng/ml
[3] = i.p.; ref [4]; cited from earlier work
mice = details: i.p., cited from earlier work
[4] = both sexes, i.p. 5 mg/kg, 10 min was the earliest time point

| SMILES | Minimal effective dose to reduce immobility time in the forced swim test (male mice) [mg/kg] | Cmax (mean ± SEM) Brain ([2]; female CD-1 mice, i.p. 5 mg/kg) [ng/g•mg/kg] | B:P ratio (brain to plasma AUC ratio) ([2]; female mice, i.p. 5 mg/kg) | t1/2 Brain (terminal half-life) ([2]; female mice, i.p. 5 mg/kg) [min] | t1/2 Plasma (terminal half-life) ([2]; female mice, i.p. 5 mg/kg) [min] | Cmax (mean ± SEM) Brain ([2]; male CD-1 mice, i.p. 5 mg/kg) [ng/g•mg/kg] | B:P ratio (brain to plasma AUC ratio) ([2]; male mice, i.p. 5 mg/kg) | t1/2 Brain (terminal half-life) ([2]; male mice, i.p. 5 mg/kg) [min] | t1/2 Plasma (terminal half-life) ([2]; male mice, i.p. 5 mg/kg) [min] | Sex-dependent difference: Brain Total exposure (AUC) [2] | Sex-dependent difference: Plasma Total exposure (AUC) [2] | further results |
| --- | --- | --- | --- | --- | --- | --- | --- | --- | --- | --- | --- | --- |
| N[C@]1(c2ccccc2Cl)CCC[C@@H](O)C1=O [(2S,6R)-HNK] | 3 | 177 ± 19.8 | 1.4 | 45 | 47 | 117 ± 30.6 | 1.2 | 45 | 45 | F > M | F > M | Ki ([1]; read-out: NMDAR binding affinity, ref [31]): > 100 µM; Shape of dose response curve for forced swim test immobility (male mice): U-shaped dose response curves; Brain Cmax and AUC compared to equivalent dosing with (2R,6R)-HNK ([2]; from Table 1): approximately three-fold lower |
| N[C@]1(c2ccccc2Cl)CC[C@H](O)CC1=O [(2S,5S)-HNK] | – | 129 ± 2.8 | 1.3 | 17 | 34 | 138 ± 8.3 | 1.2 | 16 | 27 | – | – | Brain level at 4 h post-treatment ([2]; both sexes, i.p. 5 mg/kg): below LLOQs |
| CNC1(c2ccccc2Cl)CCCCC1=O (stereo not drawn) [ketamine, reference compound] | – | – | – | – | – | – | – | – | – | – | – | Ki ([1]; read-out: Ki, inhibitory actions on NMDARs, ref [19],[31],[32]): 0.25 to 1.06 µM |
| C[C@@H]1CC[C@@](N)(c2ccccc2Cl)C(=O)[C@@H]1O [(5R)-methyl-(2R,6R)-HNK, (5R)-methyl-(2R,6R)-hydroxynorketamine] | 1 | 352 ± 22.4 | 0.4 | 41 | 49 | 324 ± 13.0 | 0.4 | 48 | 49 | M > F | M > F | Doses at which immobility time was reduced relative to vehicle (male mice; 24 h after treatment): 1 to 10 mg/kg; Brain to plasma AUC ratio ([2]; both sexes, i.p. 5 mg/kg): 0.4; Plasma elimination half-life ([2]; both sexes, i.p. 5 mg/kg): 49 min; Tmax brain [2, 4]: 10 min; Tmax plasma (time of observed maximal concentrations) [2, 4]: 10 min |
| N[C@]1(c2ccccc2Cl)CCC[C@H](O)C1=O [(2S,6S)-HNK, (2S,6S)-hydroxynorketamine] | 30 | 993 ± 27.1 | 1.2 | 44 | 46 | 712 ± 47.3 | 1.0 | 41 | 44 | F > M | F > M | Shape of dose response curve for forced swim test immobility (male mice): did not demonstrate U-shaped dose responses; Lowest dose reducing escape failures in the learned helplessness test [3]: 75 mg/kg; Cmax and AUC, fold greater than those of (2R,6R)-HNK ([2]; male mice, equivalent doses): 2-3 fold; Lowest dose reducing forced swim test immobility time (mice; ref [4]): 25 mg/kg; Effect on forced swim test immobility time and measures of anhedonia following chronic stress (mice; mice, 20 mg/kg, ref [23]): reduced forced swim test immobility time and measures of anhedonia |
| N[C@@]1(c2ccccc2Cl)C[C@H](O)CCC1=O [(2R,4R)-HNK] | – | 490 ± 26.4 | 1.2 | 29 | 29 | 431 ± 43.5 | 1.3 | 38 | 35 | M > F | M > F | – |
| N[C@]1(c2ccccc2Cl)C[C@H](O)CCC1=O [(2S,4R)-HNK] | – | 190± 13.7 | 1.0 | 21 | 47 | 160 ± 10.2 | 0.9 | 23 | 48 | – | – | Brain level at 4 h post-treatment ([2]; both sexes, i.p. 5 mg/kg): below LLOQs |
